From patent US7304075B2, “Stabilized liquid preparation” (Daiichi Pharmaceutical Co., Ltd., priority 2001, dated 2007)

Assays:
Type in all cases: physicochemical
[1] = Water solubility of free sitafloxacin; conditions: around a neutral pH
[2] = Light stability of aqueous sitafloxacin solution (white fluorescent tube irradiation); conditions: 1 mg/ml aqueous solution; for Transmission (%): T % at 430 nm
Protocol: To 160 ml of WFI were added 213.2 mg of sitafloxacin (active ingredient: 200 mg) and a varied amount of sodium chloride (0 mg for control, 20 mg, 100 mg, 200 mg, 1 g, 2 g, 4 g, 6 g or 10 g) or, for comparison, 10 g of D-sorbitol. Further, 5 ml of 0.1 mol/l aqueous hydrochloric acid was slowly added, followed by stirring for 30 mintues to dissolve sitafloxacin and sodium chloride. The nine kinds of solution each was adjusted to pH 4.0 by addition of 0.1 mol/l aqueous sodium hydroxide, and WFI was added to make 200 ml. Ten milliliter portions of the resulting aqueous solution were put into colorless ampules.
• (1) pH: Measured with a pH meter (F-16, supplied by Horiba, Ltd.). • (2) Osmotic pressure: Measured with an osmometer (3C2, supplied by Advanced Instrument, Inc.). • (3) (Light) Transmission: A transmission at 430 nm was measured with a Beckman DU-640 spectrophotometer. • (4) Retention: The content of sitafloxacin of the irradiated samples was determined as follows to calculate retention (%).
A test solution was prepared by accurately measuring 2 ml of a sample, adding an accurately measured equal amount of an internal standard solution, adding a mobile phase to make 20 ml, and mixing a 5 ml aliquot of the resulting solution with the mobile phase to make 20 ml.
A standard sitafloxacin solution was prepared by dissolving sitafloxacin for quantitative analysis (whose water content had been measured previously) precisely weighing about 0.1 g in the mobile phase to make a solution accurately measuring 100 ml, adding to an accurate 5 ml aliquot of the solution an accurately measured equal amount of the internal standard solution, adding the mobile phase to make 100 ml, and after thoroughly stirring, filtering the solution through a membrane filter. The test solution and the standard solution each measuring 10 μl were subjected to liquid chromatography under the following conditions. Ratios of the peak areas of sitafloxacin of the test solution or the standard solution to the peak area of the internal standard, QT and QS, were obtained, and the sitafloxacin content was determined according to the following equation. Sitafloxacin (C19H18ClF2N3O3) content (% to nominal amount)=amount (mg) of sitafloxacin for quantitative analysis (on dry basis)×(QT/QS)×(¼)×( 1/25)×100 wherein;
A standard solution was prepared by weighing 0.100 g of sitafloxacin for quantitative analysis (whose water content had been measured previously), adding a mobile phase to accurately make 100 ml, and adding the mobile phase to an accurately measured aliquot (1 ml) of the solution to make 100 ml.
A 10 μl aliquot of a sample and the standard solution was subjected to liquid chromatography under the following conditions, and the peak areas of the respective solutions were calculated by automatic integration to obtain the total content of sitafloxacin related substances.
Each of the 1 mg/ml aqueous solutions of sitafloxacin was irradiated with light of a white fluorescent tube (2500 lux×5 days: 300,000 lux·hr), and the same measurements as described above were repeated.

[3] = as above; conditions: sodium chloride-containing aqueous solution adjusted to pH 4.0, versus aqueous solutions without sodium chloride
[4] = Initial, 5% D-sorbitol in place of sodium chloride
[5] = Irradiated (300,000 lux·hr), 5% D-sorbitol in place of sodium chloride
[6] = Irradiated (300,000 lux·hr), NaCl 0%
[7] = Irradiated (300,000 lux·hr), NaCl 0.01%
[8] = Irradiated (300,000 lux·hr), NaCl 0.05%
[9] = Irradiated (300,000 lux·hr), NaCl 0.10%
[10] = Irradiated (300,000 lux·hr), NaCl 0.50%
[11] = Irradiated (300,000 lux·hr), NaCl 1.0%
[12] = Irradiated (300,000 lux·hr), NaCl 2.0%
[13] = Irradiated (300,000 lux·hr), NaCl 3.0%
[14] = Irradiated (300,000 lux·hr), NaCl 5.0%

N[C@@H]1CN(c2c(F)cc3c(=O)c(C(=O)O)cn([C@@H]4C[C@@H]4F)c3c2Cl)CC12CC2 [sitafloxacin, (−)-7-[(7S)-7-amino-5-azaspiro[2.4]heptan-5-yl]-8-chloro-6-fluoro-1-[(1R,2S)-2-fluoro-1-cyclopropyl]-1,4-dihydro-4-oxo-3-quinolinecarboxylic acid]
water solubility [1]: poor
Total Related substances (%) [2, 4]: 0.30%
pH [2, 4]: 4.3
Transmission (%) [2, 4]: 77.2%
Total Related substances (%) ([2]; Initial, NaCl 0%): 0.31%
pH ([2]; Initial, NaCl 0%): 4.2
Transmission (%) ([2]; Initial, NaCl 0%): 77.6%
Total Related substances (%) ([2]; Initial, NaCl 0.01%): 0.30%
pH ([2]; Initial, NaCl 0.01%): 4.4
Transmission (%) ([2]; Initial, NaCl 0.01%): 77.1%
Total Related substances (%) ([2]; Initial, NaCl 0.05%): 0.29%
pH ([2]; Initial, NaCl 0.05%): 4.3
Transmission (%) ([2]; Initial, NaCl 0.05%): 76.8%
Total Related substances (%) ([2]; Initial, NaCl 0.10%): 0.26%
pH ([2]; Initial, NaCl 0.10%): 4.3
Transmission (%) ([2]; Initial, NaCl 0.10%): 76.7%
Total Related substances (%) ([2]; Initial, NaCl 0.50%): 0.28%
pH ([2]; Initial, NaCl 0.50%): 4.2
Transmission (%) ([2]; Initial, NaCl 0.50%): 75.6%
Total Related substances (%) ([2]; Initial, NaCl 1.0%): 0.30%
pH ([2]; Initial, NaCl 1.0%): 4.3
Transmission (%) ([2]; Initial, NaCl 1.0%): 74.7%
Total Related substances (%) ([2]; Initial, NaCl 2.0%): 0.31%
pH ([2]; Initial, NaCl 2.0%): 4.3
Transmission (%) ([2]; Initial, NaCl 2.0%): 73.1%
Total Related substances (%) ([2]; Initial, NaCl 3.0%): 0.30%
pH ([2]; Initial, NaCl 3.0%): 4.3
Transmission (%) ([2]; Initial, NaCl 3.0%): 72.8%
Total Related substances (%) ([2]; Initial, NaCl 5.0%): 0.30%
pH ([2]; Initial, NaCl 5.0%): 4.3
Transmission (%) ([2]; Initial, NaCl 5.0%): 70.7%
Retention (per Initial %) [2, 5]: 86.6%
Total Related substances (%) [2, 5]: 5.90%
pH [2, 5]: 3.5
Transmission (%) [2, 5]: 56.8%
Retention (per Initial %) [2, 6]: 84.2%
Total Related substances (%) [2, 6]: 5.90%
pH [2, 6]: 3.4
Transmission (%) [2, 6]: 47.1%
Retention (per Initial %) [2, 7]: 87.9%
Total Related substances (%) [2, 7]: 5.21%
pH [2, 7]: 3.7
Transmission (%) [2, 7]: 52.8%
Retention (per Initial %) [2, 8]: 91.7%
Total Related substances (%) [2, 8]: 3.84%
pH [2, 8]: 3.8
Transmission (%) [2, 8]: 61.0%
Retention (per Initial %) [2, 9]: 93.5%
Total Related substances (%) [2, 9]: 3.02%
pH [2, 9]: 3.8
Transmission (%) [2, 9]: 64.4%
Retention (per Initial %) [2, 10]: 94.2%
Total Related substances (%) [2, 10]: 2.48%
pH [2, 10]: 3.9
Transmission (%) [2, 10]: 63.6%
Retention (per Initial %) [2, 11]: 94.7%
Total Related substances (%) [2, 11]: 2.02%
pH [2, 11]: 3.9
Transmission (%) [2, 11]: 62.6%
Retention (per Initial %) [2, 12]: 94.0%
Total Related substances (%) [2, 12]: 2.30%
pH [2, 12]: 3.8
Transmission (%) [2, 12]: 60.7%
Retention (per Initial %) [2, 13]: 95.5%
Total Related substances (%) [2, 13]: 2.01%
pH [2, 13]: 3.9
Transmission (%) [2, 13]: 61.0%
Retention (per Initial %) [2, 14]: 94.8%
Total Related substances (%) [2, 14]: 2.28%
pH [2, 14]: 3.9
Transmission (%) [2, 14]: 57.6%
formation of related substances due to irradiation or the reduction in pH [3]: more suppressed
